Source: patent publication US6407081B1, “Method for inhibiting cytokine production by cells” (Previsan AG, priority 1997, dated 2002)

Experiments:
[1] = test system: IL-5; assay: IL-5 production by purified T lymphocytes (Example 3); type: cell-based, human; conditions: mean of 2 donors
Description: (§1) PBMC from three healthy donors are purified by density gradient […] (LymphoPrep). The T lymphocytes are obtained from 15.10^6 PBMC incubated for 20 to 30 minutes in a waterbath at 37° C. with 0.8 ml of a mixture of LymphoKwik® (One Lambda, Inc., CA, USA). This latter substance is a mixture of complement and specific antibody for antigen units of the cell membrane which lyses the unwanted cells (B lymphocytes, monocytes, etc.). The cells are centrifuged and then washed twice.
(§2) These cultures are treated with various concentrations of ADA.
(§3) In Examples 3 and 4, the results are stated as a percentage taking the medium without ADA as 100%. The concentrations corresponding to 100% are respectively 90,000 pg/ml for IL-2, 1100 pg/ml for IL-5, 1900 pg/ml for IFN-γ and 2870 pg/ml for TNF-α. The results are the mean of independent ELISA assays.

[2] = test system: TNF-α; assay: TNF-α production by purified CD4 T lymphocytes stimulated by PMA + anti-CD28 (Example 4); type: cell-based, human; conditions: for TNF-α in % relative to control: purified CD4 T lymphocytes, PMA + anti-CD28, 5 donors
Description: (§4) Purified CD4 T lymphocytes (90% purity) stimulated by PMA (phorbol myristate acetate)+anti-CD28 antibodies from healthy donors are treated with various concentrations of ADA.
as §3

[3] = test system: IFN-γ; assay: Interferon-γ production by purified CD4 T lymphocytes stimulated by PMA + anti-CD28 (Example 4); type: cell-based, human; conditions: for IFN-γ in % relative to control: purified CD4 T lymphocytes, PMA + anti-CD28, mean of 2 donors
Description: as §4, §3

[4] = test system: IL-2; assay: IL-2 production by purified CD4 T lymphocytes stimulated by PMA + anti-CD28 (Example 4); type: cell-based, human; conditions: for IL-2 in % relative to control: purified CD4 T lymphocytes, PMA + anti-CD28, mean of 2 donors
Description: as §4, §3

[5] = test system: Peripheral mononuclear blood cells (PMBC); assay: Cytotoxic effects on the PBMC cultures of Examples 1 and 2; type: cell-based, human; conditions: at the ADA concentrations reducing cytokine production in Examples 1 and 2
[6] = test system: interferon-γ; assay: Interferon-γ production by PHA-activated PBMC (Example 2); type: cell-based, human; conditions: for Interferon-γ content as a percentage of the control: PHA-activated PBMC, 72 h
Description: Peripheral mononuclear blood cells (PMBC) from five healthy human donors are isolated in the conventional manner from 50 ml of their blood and then purified by density gradient centrifugation (Lymphoprep). The cells (5.10^6 cells/ml) are activated by 0.3 μg/ml of phytohaemagglutinin (PHA) and cultured for 72 hours at 37° C. in the presence of various concentrations of ADA (20, 10, 5, 1, 0.2 and 0.04 μg/ml). The culture medium consists of RPMI 1640 complemented with 10% foetal calf serum and glutamine and contains mercaptoethanol. The ADA solutions are prepared in dimethyl sulfoxide (DMSO), the working concentration of DMSO during the experiments being 0.1%. Said experiments are performed on 96 well plates (200 μl/well) and, once the plates have been centrifuged at 1500 revolutions per minute for 10 minutes, the supernatants are harvested and the IL-5 content thereof analysed by an ELISA immunoenzymatic assay.
Starting from the same cell cultures as those used in Example 1, the presence of interferon-γ was investigated after treatment with the stated concentrations of ADA.

[7] = test system: IL-4; assay: In vivo serum IL-4 release after anti-CD3 145-2C11 mAb (Example 5); design: species or system BALB/C mice; conditions: ADA 100 mg/kg single injection one day before 145-2C11 mAb; sera at 2, 4, 8, 24 h; FIG. 2
Description: A single intraparenteral injection of azodicarbon-amide (ADA) at a dose of 100 mg/kg bodyweight or corresponding carrier is made into BALB/C mice (Harlan, Zeist, Netherlands) one day before intraparenteral inoculation of 25 μg of hamster 145-2C11 mAb, an anti-mouse CD3 mAb which brings about massive in vivo activation of polyclonal T cells, resulting in systemic cytokine release. Sera are collected 2, 4, 8 and 24 hours after the anti-CD3 treatment and the cytokine (IL-2, IL-4) levels are determined by an ELISA test (Genzyme).
FIGS. 1 and 2 are graphs showing, on the y-axis, the quantities of IL-2 and IL-4 in the serum as a mean of 5 test animals. […] The empty bars show the results obtained with the carrier and the shaded bars show those obtained with prior ADA treatment.

[8] = test system: IFN-γ; assay: Interferon-γ production by purified T lymphocytes (Example 3); type: cell-based, human; conditions: mean of 3 donors
Description: as §1, §2, §3

Structure (SMILES): NC(=O)N=NC(N)=O [ADA, azodicarbon-amide]
- IL-5 in % relative to control ([1]; ADA 1 μg/ml): 67 % relative to control
- IL-5 in % relative to control ([1]; ADA 5 μg/ml): 60 % relative to control
- IL-5 in % relative to control ([1]; ADA 10 μg/ml): 40 % relative to control
- IL-5 in % relative to control ([1]; ADA 20 μg/ml): 16 % relative to control
- production of TNF-α ([2]; 20 μg/ml of ADA, donors of Example 4): inhibited
- TNF-α in % relative to control ([2]; ADA 1 μg/ml): 90 % relative to control
- TNF-α in % relative to control ([2]; ADA 5 μg/ml): 48 % relative to control
- TNF-α in % relative to control ([2]; ADA 10 μg/ml): 32 % relative to control
- TNF-α in % relative to control ([2]; ADA 20 μg/ml): 14 % relative to control
- production of interferon-γ ([3]; 20 μg/ml of ADA, donors of Examples 3 and 4): inhibited
- IFN-γ in % relative to control ([3]; ADA 1 μg/ml): 73 % relative to control
- IFN-γ in % relative to control ([3]; ADA 5 μg/ml): 36 % relative to control
- IFN-γ in % relative to control ([3]; ADA 10 μg/ml): 15 % relative to control
- IFN-γ in % relative to control ([3]; ADA 20 μg/ml): 12 % relative to control
- IL-2 in % relative to control ([4]; ADA 1 μg/ml): 82 % relative to control
- IL-2 in % relative to control ([4]; ADA 5 μg/ml): 30 % relative to control
- IL-2 in % relative to control ([4]; ADA 10 μg/ml): 18 % relative to control
- IL-2 in % relative to control ([4]; ADA 20 μg/ml): 10 % relative to control
- secretion of IL-2 by lymphocytes ([4]; concentrations lower than 20 μg/ml of ADA, Examples 3 and 4): Even lower concentrations inhibit
- cytotoxic effects [5]: no cytotoxic effects
- Interferon-γ content as a percentage of the control ([6]; ADA 0.04 μg/ml, Donor 1): 62 % of control
- Interferon-γ content as a percentage of the control ([6]; ADA 0.04 μg/ml, Donor 2): 53 % of control
- Interferon-γ content as a percentage of the control ([6]; ADA 0.04 μg/ml, Donor 3): 99 % of control
- Interferon-γ content as a percentage of the control ([6]; ADA 0.04 μg/ml, Donor 4): 82 % of control
- Interferon-γ content as a percentage of the control ([6]; ADA 0.04 μg/ml, Donor 5): 38 % of control
- Interferon-γ content as a percentage of the control ([6]; ADA 0.04 μg/ml, Mean of donors): 67 % of control
- Interferon-γ content as a percentage of the control ([6]; ADA 0.2 μg/ml, Donor 1): 112 % of control
- Interferon-γ content as a percentage of the control ([6]; ADA 0.2 μg/ml, Donor 2): 111 % of control
- Interferon-γ content as a percentage of the control ([6]; ADA 0.2 μg/ml, Donor 3): 70 % of control
- Interferon-γ content as a percentage of the control ([6]; ADA 0.2 μg/ml, Mean of donors (donors 4, 5 not given)): 98 % of control
- Interferon-γ content as a percentage of the control ([6]; ADA 1 μg/ml, Donor 1): 87 % of control
- Interferon-γ content as a percentage of the control ([6]; ADA 1 μg/ml, Donor 2): 98 % of control
- Interferon-γ content as a percentage of the control ([6]; ADA 1 μg/ml, Donor 3): 49 % of control
- Interferon-γ content as a percentage of the control ([6]; ADA 1 μg/ml, Mean of donors (donors 4, 5 not given)): 78 % of control
- Interferon-γ content as a percentage of the control ([6]; ADA 5 μg/ml, Donor 1): 68 % of control
- Interferon-γ content as a percentage of the control ([6]; ADA 5 μg/ml, Donor 2): 128 % of control
- Interferon-γ content as a percentage of the control ([6]; ADA 5 μg/ml, Donor 3): 62 % of control
- Interferon-γ content as a percentage of the control ([6]; ADA 5 μg/ml, Donor 4): 57 % of control
- Interferon-γ content as a percentage of the control ([6]; ADA 5 μg/ml, Donor 5): 25 % of control
- Interferon-γ content as a percentage of the control ([6]; ADA 5 μg/ml, Mean of donors): 68 % of control
- Interferon-γ content as a percentage of the control ([6]; ADA 10 μg/ml, Donor 1): 23 % of control
- Interferon-γ content as a percentage of the control ([6]; ADA 10 μg/ml, Donor 2): 169 % of control
- Interferon-γ content as a percentage of the control ([6]; ADA 10 μg/ml, Donor 3): 43 % of control
- Interferon-γ content as a percentage of the control ([6]; ADA 10 μg/ml, Mean of donors (donors 4, 5 not given)): 78 % of control
- Interferon-γ content as a percentage of the control ([6]; ADA 20 μg/ml, Donor 1): 21 % of control
- Interferon-γ content as a percentage of the control ([6]; ADA 20 μg/ml, Donor 2): 86 % of control
- Interferon-γ content as a percentage of the control ([6]; ADA 20 μg/ml, Donor 3): 40 % of control
- Interferon-γ content as a percentage of the control ([6]; ADA 20 μg/ml, Donor 4): 25 % of control
- Interferon-γ content as a percentage of the control ([6]; ADA 20 μg/ml, Donor 5): 16 % of control
- Interferon-γ content as a percentage of the control ([6]; ADA 20 μg/ml, Mean of donors): 38 % of control
- inhibition of interferon-γ production, number of donors ([6]; PBMC of 5 donors, ADA 0.04-20 μg/ml): inhibition is observed in 4 out of 5 donors
- release of IL-4 into serum [7]: significant reduction
- IFN-γ in % relative to control ([8]; ADA 1 μg/ml): 82 % relative to control
- IFN-γ in % relative to control ([8]; ADA 5 μg/ml): 34 % relative to control
- IFN-γ in % relative to control ([8]; ADA 10 μg/ml): 14 % relative to control
- IFN-γ in % relative to control ([8]; ADA 20 μg/ml): 4 % relative to control
